Data reported in PubChem BioAssay (NCI).
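Assay format: 96-well plates, 48-hour exposure. The concentration for 50% growth inhibition is given as GI50. TGI marks complete inhibition of growth.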

Tests used:
Assay in all cases: DTP human tumour cell line panel, 48 h
CAKI-1 renal = tested on: CAKI-1 renal
HCT-116 colon = tested on: HCT-116 colon
NCI-H522 lung = tested on: NCI-H522 lung
IGROV1 ovarian = tested on: IGROV1 ovarian
MCF7 breast = tested on: MCF7 breast
HCT-15 colon = tested on: HCT-15 colon
CCRF-CEM leukemia = tested on: CCRF-CEM leukemia
NCI-H226 lung = tested on: NCI-H226 lung
OVCAR-4 ovarian = tested on: OVCAR-4 ovarian
ACHN renal = tested on: ACHN renal
M14 melanoma = tested on: M14 melanoma
MDA-MB-435 = tested on: MDA-MB-435
SK-MEL-2 melanoma = tested on: SK-MEL-2 melanoma
T-47D breast = tested on: T-47D breast
MDA-MB-231 breast = tested on: MDA-MB-231 breast
SK-OV-3 ovarian = tested on: SK-OV-3 ovarian
MOLT-4 leukemia = tested on: MOLT-4 leukemia
U251 CNS = tested on: U251 CNS
A498 renal = tested on: A498 renal
HL-60(TB) leukemia = tested on: HL-60(TB) leukemia
K-562 leukemia = tested on: K-562 leukemia
NCI-H460 lung = tested on: NCI-H460 lung
SK-MEL-5 melanoma = tested on: SK-MEL-5 melanoma
SNB-75 CNS = tested on: SNB-75 CNS
786-0 renal = tested on: 786-0 renal
A549 NSCLC = tested on: A549 NSCLC
MALME-3M melanoma = tested on: MALME-3M melanoma
SF-539 CNS = tested on: SF-539 CNS
NCI-H23 lung = tested on: NCI-H23 lung
SW-620 colon = tested on: SW-620 colon
SF-295 CNS = tested on: SF-295 CNS
DU-145 prostate = tested on: DU-145 prostate
SN12C renal = tested on: SN12C renal
RPMI-8226 leukemia = tested on: RPMI-8226 leukemia
SR leukemia = tested on: SR leukemia
HT29 colon = tested on: HT29 colon
KM12 colon = tested on: KM12 colon
RXF 393 renal = tested on: RXF 393 renal
EKVX NSCLC = tested on: EKVX NSCLC
TK-10 renal = tested on: TK-10 renal
BT-549 breast = tested on: BT-549 breast
OVCAR-5 ovarian = tested on: OVCAR-5 ovarian
OVCAR-8 ovarian = tested on: OVCAR-8 ovarian
SK-MEL-28 melanoma = tested on: SK-MEL-28 melanoma
HOP-62 NSCLC = tested on: HOP-62 NSCLC
UO-31 renal = tested on: UO-31 renal
LOX IMVI melanoma = tested on: LOX IMVI melanoma
HS 578T breast = tested on: HS 578T breast
SF-268 CNS = tested on: SF-268 CNS
NCI/ADR-RES ovarian = tested on: NCI/ADR-RES ovarian
PC-3 prostate = tested on: PC-3 prostate
UACC-62 melanoma = tested on: UACC-62 melanoma
SNB-19 CNS = tested on: SNB-19 CNS
COLO 205 colon = tested on: COLO 205 colon
UACC-257 melanoma = tested on: UACC-257 melanoma
HCC-2998 colon = tested on: HCC-2998 colon
HOP-92 NSCLC = tested on: HOP-92 NSCLC

Compound: COC(=O)C[Se]C(=O)Cc1c(C)n(C(=O)c2ccc(Cl)cc2)c2ccc(OC)cc12
- GI50 (CAKI-1 renal): 2.63 µM
- TGI (CAKI-1 renal): 6.85 µM
- GI50 (HCT-116 colon): 1.8 µM
- TGI (HCT-116 colon): 4.21 µM
- GI50 (NCI-H522 lung): 9.61 µM
- TGI (NCI-H522 lung): 28.8 µM
- GI50 (IGROV1 ovarian): 2.1 µM
- TGI (IGROV1 ovarian): 4.91 µM
- GI50 (MCF7 breast): 2.57 µM
- TGI (MCF7 breast): 11.3 µM
- GI50 (HCT-15 colon): 2.2 µM
- TGI (HCT-15 colon): 6.03 µM
- GI50 (CCRF-CEM leukemia): 3.04 µM
- TGI (CCRF-CEM leukemia): 16.8 µM
- GI50 (NCI-H226 lung): 2.03 µM
- TGI (NCI-H226 lung): 6.53 µM
- GI50 (OVCAR-4 ovarian): 2.27 µM
- TGI (OVCAR-4 ovarian): 8.1 µM
- GI50 (ACHN renal): 3.36 µM
- TGI (ACHN renal): 10.2 µM
- GI50 (M14 melanoma): 1.64 µM
- TGI (M14 melanoma): 4.91 µM
- GI50 (MDA-MB-435): 1.75 µM
- TGI (MDA-MB-435): 3.43 µM
- GI50 (SK-MEL-2 melanoma): 2.44 µM
- TGI (SK-MEL-2 melanoma): 7.79 µM
- GI50 (T-47D breast): 7.32 µM
- TGI (T-47D breast): 38 µM
- GI50 (MDA-MB-231 breast): 2.27 µM
- TGI (MDA-MB-231 breast): 5.89 µM
- GI50 (SK-OV-3 ovarian): 5.57 µM
- TGI (SK-OV-3 ovarian): 19.2 µM
- GI50 (MOLT-4 leukemia): 5.29 µM
- TGI (MOLT-4 leukemia): 90.1 µM
- GI50 (U251 CNS): 2.38 µM
- TGI (U251 CNS): 5.8 µM
- GI50 (A498 renal): 2.43 µM
- TGI (A498 renal): 6.36 µM
- GI50 (HL-60(TB) leukemia): 2.9 µM
- TGI (HL-60(TB) leukemia): 19.7 µM
- GI50 (K-562 leukemia): 5.3 µM
- TGI (K-562 leukemia): > 100 µM
- GI50 (NCI-H460 lung): 2.62 µM
- TGI (NCI-H460 lung): 8.34 µM
- GI50 (SK-MEL-5 melanoma): 1.83 µM
- TGI (SK-MEL-5 melanoma): 3.42 µM
- GI50 (SNB-75 CNS): 1.8 µM
- TGI (SNB-75 CNS): 4.17 µM
- GI50 (786-0 renal): 2.64 µM
- TGI (786-0 renal): 6.58 µM
- GI50 (A549 NSCLC): 1.96 µM
- TGI (A549 NSCLC): 4.63 µM
- GI50 (MALME-3M melanoma): 1.81 µM
- TGI (MALME-3M melanoma): 5.31 µM
- GI50 (SF-539 CNS): 2.7 µM
- TGI (SF-539 CNS): 7.69 µM
- GI50 (NCI-H23 lung): 2.41 µM
- TGI (NCI-H23 lung): 6.41 µM
- GI50 (SW-620 colon): 2.03 µM
- TGI (SW-620 colon): 4.39 µM
- GI50 (SF-295 CNS): 2.21 µM
- TGI (SF-295 CNS): 4.92 µM
- GI50 (DU-145 prostate): 2.72 µM
- TGI (DU-145 prostate): 8.01 µM
- GI50 (SN12C renal): 3.09 µM
- TGI (SN12C renal): 10.9 µM
- GI50 (RPMI-8226 leukemia): 3.36 µM
- TGI (RPMI-8226 leukemia): 22.9 µM
- GI50 (SR leukemia): 3.74 µM
- TGI (SR leukemia): > 100 µM
- GI50 (HT29 colon): 2.84 µM
- TGI (HT29 colon): 8.17 µM
- GI50 (KM12 colon): 3.06 µM
- TGI (KM12 colon): 12.6 µM
- GI50 (RXF 393 renal): 1.73 µM
- TGI (RXF 393 renal): 5.28 µM
- GI50 (EKVX NSCLC): 1.71 µM
- TGI (EKVX NSCLC): 4.26 µM
- GI50 (TK-10 renal): 3.72 µM
- TGI (TK-10 renal): 18.2 µM
- GI50 (BT-549 breast): 1.91 µM
- TGI (BT-549 breast): 4.21 µM
- GI50 (OVCAR-5 ovarian): 2.21 µM
- TGI (OVCAR-5 ovarian): 6 µM
- GI50 (OVCAR-8 ovarian): 2.27 µM
- TGI (OVCAR-8 ovarian): 6.22 µM
- GI50 (SK-MEL-28 melanoma): 3.26 µM
- TGI (SK-MEL-28 melanoma): 12 µM
- GI50 (HOP-62 NSCLC): 1.74 µM
- TGI (HOP-62 NSCLC): 4.14 µM
- GI50 (UO-31 renal): 1.52 µM
- TGI (UO-31 renal): 8.03 µM
- GI50 (LOX IMVI melanoma): 1.81 µM
- TGI (LOX IMVI melanoma): 3.79 µM
- GI50 (HS 578T breast): 2.33 µM
- TGI (HS 578T breast): 8.84 µM
- GI50 (SF-268 CNS): 3.18 µM
- TGI (SF-268 CNS): 12.3 µM
- GI50 (NCI/ADR-RES ovarian): 2.41 µM
- TGI (NCI/ADR-RES ovarian): 6.92 µM
- GI50 (PC-3 prostate): 3.91 µM
- TGI (PC-3 prostate): 15.5 µM
- GI50 (UACC-62 melanoma): 2.85 µM
- TGI (UACC-62 melanoma): 14 µM
- GI50 (SNB-19 CNS): 3.32 µM
- TGI (SNB-19 CNS): 12.4 µM
- GI50 (COLO 205 colon): 1.83 µM
- TGI (COLO 205 colon): 4.4 µM
- GI50 (UACC-257 melanoma): 2.17 µM
- TGI (UACC-257 melanoma): 7.37 µM
- GI50 (HCC-2998 colon): 4.96 µM
- TGI (HCC-2998 colon): 16.9 µM
- GI50 (HOP-92 NSCLC): 1.98 µM
- TGI (HOP-92 NSCLC): 4.27 µM
